Assay results reported in PubChem BioAssay AID2060619 (Molecular Pharmacology Branch, DTP, NCI, 2025).
Where “and” joins values, the source holds several entries; their conditions need not be identical. Equal entries are not always repeated.

System: 323965-272-R-J2-PDC complex spheroid viability
Test: Anticancer human tumor 323965-272-R-J2-PDC patient-derived pancreatic carcinoma cell line growth inhibition [CLK]
Conditions: for viability, T/C: stronger effect = lower value
Summary of the method: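 Patient-derived tumor cells grown as complex spheroids with HUVEC endothelial cells and mesenchymal stem cells, treated with drug combinations. Concentrations descend in half-log steps from near clinical Cmax, or from 10 microM if Cmax unknown.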

[1] = curve of first compound, second compound 0.0316 µM
[2] = curve of first compound, second compound 0.1 µM
[3] = curve of first compound, second compound 0.316 µM
[4] = curve of first compound, second compound 1 µM
[5] = curve of first compound, second compound 3.16 µM
[6] = curve of first compound, second compound 10 µM
[7] = second compound 0.0316 µM, first compound 0.0316 µM
[8] = second compound 0.0316 µM, first compound 0.1 µM
[9] = second compound 0.0316 µM, first compound 0.316 µM
[10] = second compound 0.0316 µM, first compound 1 µM
[11] = second compound 0.0316 µM, first compound 3.16 µM
[12] = second compound 0.0316 µM, first compound 10 µM
[13] = second compound 0.1 µM, first compound 0.0316 µM
[14] = second compound 0.1 µM, first compound 0.1 µM
[15] = second compound 0.1 µM, first compound 0.316 µM
[16] = second compound 0.1 µM, first compound 1 µM
[17] = second compound 0.1 µM, first compound 3.16 µM
[18] = second compound 0.1 µM, first compound 10 µM
[19] = second compound 0.316 µM, first compound 0.0316 µM
[20] = second compound 0.316 µM, first compound 0.1 µM
[21] = second compound 0.316 µM, first compound 0.316 µM
[22] = second compound 0.316 µM, first compound 1 µM
[23] = second compound 0.316 µM, first compound 3.16 µM
[24] = second compound 0.316 µM, first compound 10 µM
[25] = second compound 1 µM, first compound 0.0316 µM
[26] = second compound 1 µM, first compound 0.1 µM
[27] = second compound 1 µM, first compound 0.316 µM
[28] = second compound 1 µM, first compound 1 µM
[29] = second compound 1 µM, first compound 3.16 µM
[30] = second compound 1 µM, first compound 10 µM
[31] = second compound 3.16 µM, first compound 0.0316 µM
[32] = second compound 3.16 µM, first compound 0.1 µM
[33] = second compound 3.16 µM, first compound 0.316 µM
[34] = second compound 3.16 µM, first compound 1 µM
[35] = second compound 3.16 µM, first compound 3.16 µM
[36] = second compound 3.16 µM, first compound 10 µM
[37] = second compound 10 µM, first compound 0.0316 µM
[38] = second compound 10 µM, first compound 0.1 µM
[39] = second compound 10 µM, first compound 0.316 µM
[40] = second compound 10 µM, first compound 1 µM
[41] = second compound 10 µM, first compound 3.16 µM
[42] = second compound 10 µM, first compound 10 µM
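Also: spheroids exposed to agents for seven days before readout.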
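For viability, T/C in this document: percent of DMSO vehicle control wells so 100% = untreated growth.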

`C=CC(=O)Nc1cc(Nc2nccc(-c3cn(C)c4ccccc34)n2)c(OC)cc1N(C)CCN(C)C` + CN1CCN(c2cc(C(=O)Nc3cc4cc(-c5cnn(C)c5)ccc4cn3)ccn2)CC1 was tested, and the IC50 [1] was over 300 nM, the IC50 [2] was over 300 nM and the IC50 [3] was under 0.949 nM. For the same compound, the IC50 [4] was under 0.949 nM, the IC50 [5] was under 0.949 nM and the IC50 [6] was under 0.949 nM. It also gave a viability, T/C (second compound 0.0316 µM, first compound 0.000949 µM) of 92.1%, a viability, T/C (second compound 0.0316 µM, first compound 0.003 µM) of 86.8% and a viability, T/C (second compound 0.0316 µM, first compound 0.00949 µM) of 89.3%. It also gave a viability, T/C (second compound 0.0316 µM, first compound 0.03 µM) of 89.6%, a viability, T/C (second compound 0.0316 µM, first compound 0.0949 µM) of 82% and a viability, T/C (second compound 0.0316 µM, first compound 0.3 µM) of 75.8%. For the same compound, the viability, T/C (second compound 0.1 µM, first compound 0.000949 µM) was 73.2%, the viability, T/C (second compound 0.1 µM, first compound 0.003 µM) was 76.4% and the viability, T/C (second compound 0.1 µM, first compound 0.00949 µM) was 59.1%. It also gave a viability, T/C (second compound 0.1 µM, first compound 0.03 µM) of 61.8%, a viability, T/C (second compound 0.1 µM, first compound 0.0949 µM) of 52.2% and a viability, T/C (second compound 0.1 µM, first compound 0.3 µM) of 51.4%. The viability, T/C (second compound 0.316 µM, first compound 0.000949 µM) was 21.9%, the viability, T/C (second compound 0.316 µM, first compound 0.003 µM) was 26.8% and the viability, T/C (second compound 0.316 µM, first compound 0.00949 µM) was 21.4%. The viability, T/C (second compound 0.316 µM, first compound 0.03 µM) was 19.1%, the viability, T/C (second compound 0.316 µM, first compound 0.0949 µM) was 17.7% and the viability, T/C (second compound 0.316 µM, first compound 0.3 µM) was 17.3%. The viability, T/C (second compound 1 µM, first compound 0.000949 µM) was 3.35%, the viability, T/C (second compound 1 µM, first compound 0.003 µM) was 2.76% and the viability, T/C (second compound 1 µM, first compound 0.00949 µM) was 7.03%. For the same compound, the viability, T/C (second compound 1 µM, first compound 0.03 µM) was 2.91%, the viability, T/C (second compound 1 µM, first compound 0.0949 µM) was 2.48% and the viability, T/C (second compound 1 µM, first compound 0.3 µM) was 2.38%. For the same compound, the viability, T/C (second compound 3.16 µM, first compound 0.000949 µM) was 3.68%, the viability, T/C (second compound 3.16 µM, first compound 0.003 µM) was 3.94% and the viability, T/C (second compound 3.16 µM, first compound 0.00949 µM) was 5.04%. The viability, T/C (second compound 3.16 µM, first compound 0.03 µM) was 2.7%, the viability, T/C (second compound 3.16 µM, first compound 0.0949 µM) was 2.6% and the viability, T/C (second compound 3.16 µM, first compound 0.3 µM) was 3.13%. For the same compound, the viability, T/C (second compound 10 µM, first compound 0.000949 µM) was 4.03%, the viability, T/C (second compound 10 µM, first compound 0.003 µM) was 4.64% and the viability, T/C (second compound 10 µM, first compound 0.00949 µM) was 4.92%. It also gave a viability, T/C (second compound 10 µM, first compound 0.03 µM) of 3.05%, a viability, T/C (second compound 10 µM, first compound 0.0949 µM) of 2.71% and a viability, T/C (second compound 10 µM, first compound 0.3 µM) of 3.08%.

`CC(CO)NC(=O)c1cc(-c2ccc(Cl)cc2)nn(-c2cnn(C)c2)c1=O` (stereo not given) + CN1CCN(c2cc(C(=O)Nc3cc4cc(-c5cnn(C)c5)ccc4cn3)ccn2)CC1 gave an IC50 [1] of over 10000 nM, an IC50 [2] of over 10000 nM and an IC50 [3] of under 31.6 nM. It also gave an IC50 [4] of under 31.6 nM, an IC50 [5] of under 31.6 nM and an IC50 [6] of under 31.6 nM. It also gave a viability, T/C [7] of 97.3%, a viability, T/C [8] of 102% and a viability, T/C [9] of 103%. It also gave a viability, T/C [10] of 87.4%, a viability, T/C [11] of 112% and a viability, T/C [12] of 113%. The viability, T/C [13] was 68%, the viability, T/C [14] was 80.5% and the viability, T/C [15] was 83.1%. For the same compound, the viability, T/C [16] was 72.5%, the viability, T/C [17] was 76% and the viability, T/C [18] was 89.5%. The viability, T/C [19] was 25.8%, the viability, T/C [20] was 27.2% and the viability, T/C [21] was 25%. For the same compound, the viability, T/C [22] was 22.3%, the viability, T/C [23] was 28.2% and the viability, T/C [24] was 32.8%. The viability, T/C [25] was 3.75%, the viability, T/C [26] was 3.59% and the viability, T/C [27] was 4.21%. The viability, T/C [28] was 3.61%, the viability, T/C [29] was 3.03% and the viability, T/C [30] was 3.2%. The viability, T/C [31] was 4.17%, the viability, T/C [32] was 3.62% and the viability, T/C [33] was 3.4%. For the same compound, the viability, T/C [34] was 3.82%, the viability, T/C [35] was 4.87% and the viability, T/C [36] was 4.3%. It also gave a viability, T/C [37] of 4.55%, a viability, T/C [38] of 5.29% and a viability, T/C [39] of 4.22%. For the same compound, the viability, T/C [40] was 3.24%, the viability, T/C [41] was 3.64% and the viability, T/C [42] was 3.17%.

With `O=c1[nH]cc(F)c(=O)[nH]1` the viability, T/C (compound 0.0316 µM) was 116% and 95.3%, the viability, T/C (compound 0.1 µM) was 105% and 91.3% and the viability, T/C (compound 0.316 µM) was 111% and 103%. For the same compound, the viability, T/C (compound 1 µM) was 96.9% and 96.8%, the viability, T/C (compound 3.16 µM) was 67.9% and 76.6% and the viability, T/C (compound 10 µM) was 51.1% and 52.5%. It also gave an IC50 (curve of compound) of over 10000 nM.

For `CC(Nc1ccc2c(c1)OCCn1cc(N3C(=O)OCC3C(F)F)nc1-2)C(N)=O` (stereo not given) + CNC(=O)c1ccc(Nc2nc(OC3CCCC3)c3c(-c4ccc5nc(C)oc5c4)c[nH]c3n2)c(OC)c1, the IC50 [1] was over 10000 nM, the IC50 [2] was over 10000 nM and the IC50 [3] was 290 nM. It also gave an IC50 [4] of under 31.6 nM, an IC50 [5] of under 31.6 nM and an IC50 [6] of under 31.6 nM. It also gave a viability, T/C [7] of 110%, a viability, T/C [8] of 97.7% and a viability, T/C [9] of 80.4%. The viability, T/C [10] was 68.9%, the viability, T/C [11] was 64% and the viability, T/C [12] was 52%. The viability, T/C [13] was 89.7%, the viability, T/C [14] was 74.6% and the viability, T/C [15] was 73.9%. The viability, T/C [16] was 71.6%, the viability, T/C [17] was 58.4% and the viability, T/C [18] was 50.5%. It also gave a viability, T/C [19] of 63.6%, a viability, T/C [20] of 59.5% and a viability, T/C [21] of 48.5%. The viability, T/C [22] was 43.1%, the viability, T/C [23] was 39.9% and the viability, T/C [24] was 39.2%. The viability, T/C [25] was 43.4%, the viability, T/C [26] was 36.5% and the viability, T/C [27] was 33%. For the same compound, the viability, T/C [28] was 29.6%, the viability, T/C [29] was 30.1% and the viability, T/C [30] was 27.7%. For the same compound, the viability, T/C [31] was 34.8%, the viability, T/C [32] was 35.6% and the viability, T/C [33] was 30.7%. The viability, T/C [34] was 27.8%, the viability, T/C [35] was 30.7% and the viability, T/C [36] was 21.7%. It also gave a viability, T/C [37] of 42%, a viability, T/C [38] of 33.8% and a viability, T/C [39] of 28%. It also gave a viability, T/C [40] of 28.8%, a viability, T/C [41] of 28% and a viability, T/C [42] of 20.9%.

`CC(=O)O[C@H]1C(=O)[C@@]2(C)[C@H]([C@H](OC(=O)c3ccccc3)[C@]3(O)C[C@H](OC(=O)[C@H](O)[C@@H](NC(=O)c4ccccc4)c4ccccc4)C(C)=C1C3(C)C)[C@]1(OC(C)=O)CO[C@@H]1C[C@@H]2O` + CN1CCN(c2cc(C(=O)Nc3cc4cc(-c5cnn(C)c5)ccc4cn3)ccn2)CC1 gave an IC50 [1] of under 31.6 nM, an IC50 [2] of under 31.6 nM and an IC50 [3] of under 31.6 nM. It also gave an IC50 [4] of under 31.6 nM, an IC50 [5] of under 31.6 nM and an IC50 [6] of under 31.6 nM. The viability, T/C [7] was 33.2%, the viability, T/C [8] was 34.3% and the viability, T/C [9] was 31.7%. The viability, T/C [10] was 33%, the viability, T/C [11] was 34.8% and the viability, T/C [12] was 30.4%. For the same compound, the viability, T/C [13] was 28.3%, the viability, T/C [14] was 28.1% and the viability, T/C [15] was 24.7%. The viability, T/C [16] was 25.9%, the viability, T/C [17] was 26.7% and the viability, T/C [18] was 28.5%. It also gave a viability, T/C [19] of 19.8%, a viability, T/C [20] of 19.3% and a viability, T/C [21] of 19%. The viability, T/C [22] was 19.5%, the viability, T/C [23] was 17.2% and the viability, T/C [24] was 16.9%. For the same compound, the viability, T/C [25] was 3.79%, the viability, T/C [26] was 3.19% and the viability, T/C [27] was 3.35%. The viability, T/C [28] was 2.94%, the viability, T/C [29] was 3.34% and the viability, T/C [30] was 3.64%. It also gave a viability, T/C [31] of 3.67%, a viability, T/C [32] of 6.44% and a viability, T/C [33] of 4.39%. For the same compound, the viability, T/C [34] was 4.7%, the viability, T/C [35] was 3.88% and the viability, T/C [36] was 5.16%. It also gave a viability, T/C [37] of 4.53%, a viability, T/C [38] of 4.6% and a viability, T/C [39] of 4.22%. The viability, T/C [40] was 3.5%, the viability, T/C [41] was 3.95% and the viability, T/C [42] was 3.79%.
